Results from US20100210649A1, “PYRIDAZINONES AND FURAN-CONTAINING COMPOUNDS” (Sloan-Kettering Institute for Cancer Research, priority 2006, published 2010).
Like-named read-outs stand apart in the source and are kept apart here.

How the values were obtained:
[1] = test system: H1734; assay: Non Small Cell Lung Cancer proliferation assay (Alamar Blue reduction), H1734; type: cell-based, human; details: Homo sapiens, NCI-H1734
Description: These cells have a doubling time of 1-2 days. All cell types are adherent and grow in colonies. The cells should be kept at a density between 50,000 cells/mL -500,000 cells/mL to provide for optimum growth and adequate nutrition. The cell line should be maintained at 37° C. in a humidified atmosphere with 5% CO2 in a sterile cell culture incubator.
Non Small Cell Lung Cancer Proliferation Assay.
High Controls for this assay are made by treating Non Small Cell Lung Cancer cells with 5 ul of 10% DMSO. [Final concentration in this assay is 1% DMSO].
Important Note: All compounds for testing in this assay should be done at the final concentration of 1% DMSO.
After addition, the cells are placed in cell culture incubator at 37° C. for 48 hours for complete treatment.
After drug treatment, cytotoxicity is measured by Alamar Blue reduction.
The cells are incubated for 48 hours at 37° C. to complete the Alamar Blue reduction.
The final step in the assay is to measure the amount of Alamar Blue reduction. […] The Alamar Blue fluorescence is measured at an excitation of 530 nm and emission of 590 nm.
For the NSCLC project, the cell based assay was screened against a small molecule library of approximately 200,000 compounds. The compound library is stored in our automated robotic freezer (Biophile) at −20° C. in 100% DMSO. Compound freeze and thaw cycles are kept to a minimum. […] This assay was performed on a fully automated linear track robotic platform (CRS F3 Robot System, Thermo Electron Corp., Ontario, Canada) utilizing several integrated peripherals for plate handling, liquid dispensing, and readout detection. […] The microplates are then placed at 37° C. for 48 hours to complete treatment of cells with compounds. Next, 5 ul of alamar blue was added using a liquid dispenser (Flexprop Precision Dispenser, Perkin Elmer, Mass., USA) and incubated for 48 hours at 37° C. The alamar blue prompt fluorescence was measured on Victor V (Victor^3 V, Perkin Elmer, Mass., USA) and output data files were loaded into ORIS (Oncology Research Informatics System, MSKCC, NY, USA), a screening data acquisition and analysis platform.
(§1) The dose response studies were done with the following standard procedure. First, the cells were counted and dispensed at 250 cells/well into 384-well microplates with compound. The cells were incubated for 48 hours at 37 C to complete treatment, and then alamar blue was added for an additional 48 hours. Finally, alamar blue reduction was measured and the data was loaded into ORIS, our data screening acquisition platform.

[2] = test system: H3255; assay: Non Small Cell Lung Cancer proliferation assay (Alamar Blue reduction), H3255; type: cell-based, human; details: Homo sapiens
How it was run: (§2)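 Viability after 48 hours of drug exposure at 37° C is scored by Alamar Blue reduction over a subsequent 48 hours, read at 530/590 nm. DMSO-only wells (1% final) define the high control.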

[3] = test system: H460; assay: Dose response study (Alamar Blue), H460; type: cell-based; details: Homo sapiens, NCI-H460; H460; 12 point doubling dilution 10 uM to 5 nM; 48 h treatment, alamar blue additional 48 h; read-out: IC50 H460
Description: (§3) Dose response studies against 34 compounds from the pyridazinone and phenylfuran-carboxamide class were conducted. […] In addition, Tarceva was included in these dose response studies.
as §1

[4] = test system: H2122; assay: Dose response study (Alamar Blue), H2122; type: cell-based; details: Homo sapiens, NCI-H2122; H2122; 12 point doubling dilution 10 uM to 5 nM; 48 h treatment, alamar blue additional 48 h; read-out: IC50 H2122
Description: as §3, §1

[5] = test system: H23; assay: Dose response study (Alamar Blue), H23; type: cell-based; details: Homo sapiens, NCI-H23; H23; 12 point doubling dilution 10 uM to 5 nM; 48 h treatment, alamar blue additional 48 h; read-out: IC50 H23
Description: as §3, §1

[6] = test system: H1650; assay: Non Small Cell Lung Cancer proliferation assay (Alamar Blue reduction), H1650; type: cell-based, human; details: Homo sapiens
How it was run: as §2

[7] = test system: H2030; assay: Non Small Cell Lung Cancer proliferation assay (Alamar Blue reduction), H2030; type: cell-based, human; details: Homo sapiens
How it was run: as §2

[8] = H1734, 12 point doubling dilution 10 uM to 5 nM, 48 h treatment, alamar blue additional 48 h, read-out: IC50 H1734
[9] = read-out: Dose Response (uM) H1734
[10] = NCI-H3255, 48 h, H3255, 12 point doubling dilution 10 uM to 5 nM, 48 h treatment, alamar blue additional 48 h, read-out: IC50 H3255
[11] = NCI-H3255, dose response 10 M to 5 nM, IC50, read-out: Dose Response (uM) H3255
[12] = NCI-H1650, 48 h, H1650, 12 point doubling dilution 10 uM to 5 nM, 48 h treatment, alamar blue additional 48 h, read-out: IC50 H1650
[13] = NCI-H1650, dose response 10 M to 5 nM, IC50, read-out: Dose Response (uM) H1650
[14] = NCI-H2030, 48 h, H2030, 12 point doubling dilution 10 uM to 5 nM, 48 h treatment, alamar blue additional 48 h, read-out: IC50 H2030
[15] = NCI-H2030, dose response 10 M to 5 nM, IC50, read-out: Dose Response (uM) H2030

Row | SMILES | IC50 [1, 8] | IC50 [1, 9] | IC50 [2, 10] | IC50 [2, 11] | IC50 [3] | IC50 [4] | IC50 [5] | IC50 [6, 12] | IC50 [6, 13] | IC50 [7, 14] | IC50 [7, 15]
1 | Cc1ccc(-n2ncc(Cl)c(Cl)c2=O)cc1 [compound 257016] | 3.22 µM | 3.37 µM | 1.53 µM | 1.32 µM | 2.55 µM | 2.07 µM | 0.32 µM | 2.49 µM | 2.73 µM | 0.51 µM | 0.65 µM
2 | Cc1cccc(-n2ncc(Cl)c(Cl)c2=O)c1C [compound 257018] | 2.51 µM | 2.12 µM | 1.86 µM | 1.63 µM | 3.51 µM | 2.16 µM | 0.24 µM | 1.69 µM | 2.42 µM | 0.9 µM | 0.89 µM
3 | Cc1ccc(-n2ncc(Cl)c(Cl)c2=O)cc1C [compound 257019] | 4.65 µM | 2.01 µM | 2.01 µM | 1.23 µM | 4.09 µM | 4.38 µM | 0.69 µM | 4.15 µM | 2.4 µM | 0.8 µM | 0.53 µM
4 | Cc1cc(C)cc(-n2ncc(Cl)c(Cl)c2=O)c1 [compound 257020] | 2.62 µM | 1.83 µM | 1.35 µM | 0.92 µM | 2.93 µM | 2.21 µM | 0.46 µM | 2.58 µM | 2.1 µM | 0.57 µM | 0.56 µM
5 | COc1nn(-c2cccc(C)c2)c(=O)c(Cl)c1Cl [compound 257028] | 3.87 µM | 2.42 µM | 2.38 µM | 1.76 µM | 5.23 µM | 4.04 µM | 0.68 µM | 3.04 µM | 2.04 µM | 1.79 µM | 1.26 µM
6 | O=c1c(Cl)c(Cl)cnn1-c1ccc(C(F)(F)F)cc1 [compound 267060] | 5.23 µM | 1.6 µM | 2.29 µM | 2.27 µM | 4.26 µM | 6 µM | 1.07 µM | 3.95 µM | 3.92 µM | 1.11 µM | 1.09 µM
7 | COc1cccc(-n2ncc(Cl)c(Cl)c2=O)c1 [compound 267061] | 3.04 µM | 2.41 µM | 1.2 µM | 1.34 µM | 1.63 µM | 1.2 µM | 0.28 µM | 1.96 µM | 3.52 µM | 0.36 µM | 0.72 µM
8 | CCc1cccc(-n2ncc(Cl)c(Cl)c2=O)c1 [compound 267062] | 2.89 µM | 1.75 µM | 1.51 µM | 1.5 µM | 2.88 µM | 2.55 µM | 0.39 µM | 1.91 µM | 2.48 µM | 0.54 µM | 0.72 µM
9 | CCCCc1cccc(-n2ncc(Cl)c(Cl)c2=O)c1 [compound 267063] | > 10 µM | 3.25 µM | 8.35 µM | 3.89 µM | > 10 µM | > 10 µM | 5.47 µM | > 10 µM | 5.82 µM | 6.43 µM | 2.75 µM
10 | Cc1cc(-n2ncc(Cl)c(Cl)c2=O)ccc1Br [compound 267064] | > 10 µM | 1.21 µM | > 10 µM | 2.47 µM | > 10 µM | > 10 µM | 5.75 µM | > 10 µM | 2.83 µM | 7.8 µM | 0.88 µM
11 | Cc1cc(-n2ncc(Cl)c(Cl)c2=O)ccc1Cl [compound 267065] | > 10 µM | > 10 µM | > 10 µM | > 10 µM | > 10 µM | > 10 µM | 6.96 µM | > 10 µM | > 10 µM | > 10 µM | > 10 µM
12 | O=c1c(Cl)c(Cl)cnn1-c1ccc2c(c1)CCC2 [compound 267066] | 8.85 µM | 1.45 µM | 4.61 µM | 1.35 µM | 6.56 µM | 8.72 µM | 2.04 µM | > 10 µM | 1.69 µM | 2.34 µM | 1.41 µM
13 | Cc1nc2cc(-n3ncc(Cl)c(Cl)c3=O)ccc2s1 [compound 267067] | > 10 µM | 2.57 µM | > 10 µM | 3.64 µM | > 10 µM | > 10 µM | 5.68 µM | > 10 µM | 4.47 µM | 9.19 µM | 3.04 µM
14 | O=c1c(Cl)c(Cl)cnn1-c1ccc2c(c1)OCCO2 [compound 267068] | 2.83 µM | 2.12 µM | 1.23 µM | 1.2 µM | 1.97 µM | 1.59 µM | 0.29 µM | 2.26 µM | 2.33 µM | 0.47 µM | 1.23 µM
15 | O=c1c(Cl)c(Cl)cnn1Cc1ccccc1 [compound 267069] | > 10 µM | 6.86 µM | > 10 µM | 6.5 µM | > 10 µM | 9.04 µM | 2.53 µM | > 10 µM | > 10 µM | 4.01 µM | 6.83 µM
16 | Cc1ccc(-n2ncc(Cl)c(Cl)c2=O)cc1Cl [compound 267070] | > 10 µM | 2.69 µM | > 10 µM | 3.1 µM | > 10 µM | > 10 µM | > 10 µM | > 10 µM | > 10 µM | > 10 µM | 5.18 µM
17 | Cc1cccc(-n2ncc(Br)c(Br)c2=O)c1 [compound 267071] | 1.72 µM | 0.8 µM | 0.76 µM | 0.81 µM | 1.43 µM | 1.26 µM | 0.26 µM | 1.1 µM | 0.74 µM | 0.37 µM | 1.22 µM
18 | O=c1c(Br)c(Br)cnn1-c1cccc(C(F)(F)F)c1 [compound 267072] | 3.19 µM | 0.51 µM | 1.64 µM | 1 µM | 2.76 µM | 4.61 µM | 0.84 µM | 2.09 µM | 0.54 µM | 0.85 µM | –
19 | O=c1c(Br)c(Br)cnn1-c1ccccn1 [compound 267073] | 1.23 µM | 0.72 µM | 0.45 µM | 0.66 µM | 0.42 µM | 0.78 µM | 0.07 µM | 0.79 µM | 0.8 µM | 0.12 µM | 0.76 µM
